Columns and labels:
[1] = target: Sodium-dependent serotonin transporter (Homo sapiens, UniProt P31645); assay: Binding affinity to SERT (unknown origin)
Histamine H1 receptor = Histamine H1 receptor (Homo sapiens, UniProt P35367); assay: Binding affinity to H1 receptor (unknown origin)
[2] = target: T1, 5-hydroxytryptamine receptor 1A (Homo sapiens, UniProt P08908); assay: Binding affinity to 5HT1A receptor (unknown origin)
T1 sequence (P08908 whole entry): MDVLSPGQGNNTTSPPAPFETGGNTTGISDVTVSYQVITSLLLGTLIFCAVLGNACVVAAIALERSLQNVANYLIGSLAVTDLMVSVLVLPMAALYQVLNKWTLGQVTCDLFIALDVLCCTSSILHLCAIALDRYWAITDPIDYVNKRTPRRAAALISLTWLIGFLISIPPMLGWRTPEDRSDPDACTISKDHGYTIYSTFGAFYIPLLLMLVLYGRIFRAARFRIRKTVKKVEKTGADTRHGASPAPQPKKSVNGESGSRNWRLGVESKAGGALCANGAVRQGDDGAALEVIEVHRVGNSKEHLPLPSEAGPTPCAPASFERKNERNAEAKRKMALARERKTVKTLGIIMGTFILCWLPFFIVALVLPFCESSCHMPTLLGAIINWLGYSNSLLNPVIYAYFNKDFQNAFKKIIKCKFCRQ

[3] = target: 5-hydroxytryptamine receptor 2A (Homo sapiens, UniProt P28223); assay: Binding affinity to 5HT2A receptor (unknown origin)
D(2) dopamine receptor = D(2) dopamine receptor (Homo sapiens, UniProt P14416); assay: Binding affinity to D2 receptor (unknown origin)
[4] = target: 5-hydroxytryptamine receptor 6 (Homo sapiens, UniProt P50406); assay: Binding affinity to 5HT6 receptor (unknown origin)
[5] = target: 5-hydroxytryptamine receptor 7 (Homo sapiens, UniProt P34969); assay: Binding affinity to 5HT7 receptor (unknown origin)
Chain of 5-hydroxytryptamine receptor 7 (P34969 whole entry): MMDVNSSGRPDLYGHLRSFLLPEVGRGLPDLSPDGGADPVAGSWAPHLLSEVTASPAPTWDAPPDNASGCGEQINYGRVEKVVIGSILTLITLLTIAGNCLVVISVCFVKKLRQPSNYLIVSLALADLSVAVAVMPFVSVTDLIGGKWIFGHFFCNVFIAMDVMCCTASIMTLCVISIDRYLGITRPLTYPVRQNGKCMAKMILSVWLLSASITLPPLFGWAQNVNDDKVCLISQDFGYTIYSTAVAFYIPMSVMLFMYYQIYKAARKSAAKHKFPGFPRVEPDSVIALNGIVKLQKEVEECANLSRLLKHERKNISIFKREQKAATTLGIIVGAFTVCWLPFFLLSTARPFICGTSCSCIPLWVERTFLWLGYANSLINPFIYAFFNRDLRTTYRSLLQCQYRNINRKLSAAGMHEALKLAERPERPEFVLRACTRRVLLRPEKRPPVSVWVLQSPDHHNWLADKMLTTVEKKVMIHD

Chain of 5-hydroxytryptamine receptor 2A (P28223 whole entry): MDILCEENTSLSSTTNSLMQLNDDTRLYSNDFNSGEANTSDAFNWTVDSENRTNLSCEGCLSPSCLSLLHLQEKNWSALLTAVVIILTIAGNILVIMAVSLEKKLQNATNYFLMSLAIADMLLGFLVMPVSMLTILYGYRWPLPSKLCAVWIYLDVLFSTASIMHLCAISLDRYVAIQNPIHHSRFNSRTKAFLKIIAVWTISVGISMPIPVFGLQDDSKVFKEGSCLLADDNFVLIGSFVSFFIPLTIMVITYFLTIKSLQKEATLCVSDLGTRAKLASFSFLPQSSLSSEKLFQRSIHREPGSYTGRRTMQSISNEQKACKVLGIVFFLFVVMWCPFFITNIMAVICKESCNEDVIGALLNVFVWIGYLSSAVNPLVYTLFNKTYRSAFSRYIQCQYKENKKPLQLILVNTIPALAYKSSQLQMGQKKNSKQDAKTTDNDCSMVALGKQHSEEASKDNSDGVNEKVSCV
Chain of Histamine H1 receptor (P35367 whole entry): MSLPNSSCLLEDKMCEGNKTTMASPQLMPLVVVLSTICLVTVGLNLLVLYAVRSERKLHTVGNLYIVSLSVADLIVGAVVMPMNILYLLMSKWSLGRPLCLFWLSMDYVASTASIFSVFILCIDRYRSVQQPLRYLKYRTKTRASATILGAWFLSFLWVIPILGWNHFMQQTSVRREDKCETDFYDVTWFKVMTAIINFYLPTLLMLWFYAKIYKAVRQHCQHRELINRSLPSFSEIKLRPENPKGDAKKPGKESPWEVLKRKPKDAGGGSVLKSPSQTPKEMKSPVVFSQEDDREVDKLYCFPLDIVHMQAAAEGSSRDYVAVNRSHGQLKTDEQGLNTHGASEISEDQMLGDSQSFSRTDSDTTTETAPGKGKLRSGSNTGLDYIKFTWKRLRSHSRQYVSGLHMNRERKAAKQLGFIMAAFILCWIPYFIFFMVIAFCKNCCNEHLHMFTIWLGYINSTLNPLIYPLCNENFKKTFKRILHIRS
Chain of D(2) dopamine receptor (P14416 whole entry): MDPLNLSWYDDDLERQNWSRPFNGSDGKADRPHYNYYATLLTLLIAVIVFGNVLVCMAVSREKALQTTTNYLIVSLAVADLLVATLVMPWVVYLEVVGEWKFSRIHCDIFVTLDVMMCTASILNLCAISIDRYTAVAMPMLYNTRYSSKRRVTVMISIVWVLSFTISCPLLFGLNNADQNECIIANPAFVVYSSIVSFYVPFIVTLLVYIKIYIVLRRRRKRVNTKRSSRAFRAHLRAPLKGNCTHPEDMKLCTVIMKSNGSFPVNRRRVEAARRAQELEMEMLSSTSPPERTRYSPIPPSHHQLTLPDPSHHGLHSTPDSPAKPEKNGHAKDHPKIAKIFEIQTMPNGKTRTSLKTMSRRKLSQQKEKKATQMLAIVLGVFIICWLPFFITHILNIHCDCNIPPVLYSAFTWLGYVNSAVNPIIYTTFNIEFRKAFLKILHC
Chain of Sodium-dependent serotonin transporter (P31645 whole entry): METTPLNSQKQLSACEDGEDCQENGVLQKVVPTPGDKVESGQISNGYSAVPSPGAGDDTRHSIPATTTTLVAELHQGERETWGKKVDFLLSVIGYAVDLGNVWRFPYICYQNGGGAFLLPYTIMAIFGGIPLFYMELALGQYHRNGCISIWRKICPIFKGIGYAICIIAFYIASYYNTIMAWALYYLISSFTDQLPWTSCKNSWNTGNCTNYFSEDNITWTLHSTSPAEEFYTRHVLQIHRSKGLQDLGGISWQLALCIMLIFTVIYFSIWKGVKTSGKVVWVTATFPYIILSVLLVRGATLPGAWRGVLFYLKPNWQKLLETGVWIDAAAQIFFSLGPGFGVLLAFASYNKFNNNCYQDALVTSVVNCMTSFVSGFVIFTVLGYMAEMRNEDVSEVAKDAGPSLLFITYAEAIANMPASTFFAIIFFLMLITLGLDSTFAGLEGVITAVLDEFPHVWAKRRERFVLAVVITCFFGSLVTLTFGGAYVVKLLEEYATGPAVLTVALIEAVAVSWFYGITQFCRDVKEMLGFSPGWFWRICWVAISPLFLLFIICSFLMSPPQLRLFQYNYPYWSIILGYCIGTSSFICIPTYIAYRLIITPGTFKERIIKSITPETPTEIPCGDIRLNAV
Chain of 5-hydroxytryptamine receptor 6 (P50406 whole entry): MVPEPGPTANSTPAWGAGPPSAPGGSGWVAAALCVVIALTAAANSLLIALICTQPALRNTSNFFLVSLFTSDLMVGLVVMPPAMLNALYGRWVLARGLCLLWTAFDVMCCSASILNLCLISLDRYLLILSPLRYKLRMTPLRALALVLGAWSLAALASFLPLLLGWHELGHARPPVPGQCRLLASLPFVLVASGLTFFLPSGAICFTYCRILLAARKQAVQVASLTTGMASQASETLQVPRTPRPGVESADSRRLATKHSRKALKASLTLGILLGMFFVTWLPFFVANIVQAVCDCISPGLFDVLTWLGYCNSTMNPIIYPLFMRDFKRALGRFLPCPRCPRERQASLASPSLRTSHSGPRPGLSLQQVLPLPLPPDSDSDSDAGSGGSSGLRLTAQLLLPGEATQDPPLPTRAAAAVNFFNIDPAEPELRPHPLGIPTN

Structure (SMILES) | Ki [1] | Ki (Histamine H1 receptor; read-out: Ki) | Ki (Histamine H1 receptor) | Ki [2] | Ki [3] | Ki (D(2) dopamine receptor) | Ki [4] | Ki [5] | Ki ([1]; read-out: Ki)
CN(C)CCN1C(=O)c2cc(Cl)ccc2N(C)C(=O)c2cc3ccccc3cc21 | Not Active | > 5 µM |  |  |  |  |  |  | 
CN(C)CCN1C(=O)c2ccccc2C(=O)N(Cc2ccccc2)c2ccccc21 | Not Active |  | Not Active |  |  |  |  |  | 
CN1CCN(CCCN2C(=O)c3ccccc3/C=C\c3ccccc32)CC1 | Not Active | > 5 µM |  | 87.7 µM | 48.3 µM | 7.5 µM | 21.1 µM | > 100 µM | 
CN(C)CCN1C(=O)c2ccccc2N(C)C(=O)c2ccccc21 | Not Active | > 10 µM |  | > 100 µM | > 100 µM | 65.3 µM | 40.4 µM | > 100 µM | 
CN(C)CCN1C(=O)c2ccccc2CCc2ccccc21 |  | 0.29 µM |  |  |  |  |  |  | 12.4 µM
O=C1c2ccccc2/C=C\c2ccccc2N1CCCN1CCOCC1 |  |  | Not Active | 39.4 µM | > 100 µM | 19.1 µM | 75.3 µM | > 100 µM | > 100 µM
CN(C)CCCN1C(=O)c2ccccc2CCc2ccccc21 |  | 0.81 µM |  |  |  |  |  |  | > 100 µM
CN(C)CCCN1C(=O)c2cc(Cl)ccc2N(C)C(=O)c2cc3ccccc3cc21 | Not Active |  | Not Active |  |  |  |  |  | 
CN(C)CCCN1C(=O)c2ccccc2N(C)C(=O)c2ccccc21 | Not Active | > 10 µM |  |  |  |  |  |  | 
CN(C)CCN1C(=O)c2ccccc2N(C)c2ccccc21 [DIBENZEPIN] |  | 0.02 µM |  | 2.5 µM | 7.2 µM | 30.2 µM | 3.3 µM | 12.3 µM | 10.9 µM
CN(C)CCN1C(=O)c2ccccc2/C=C\c2ccccc21 |  | 0.12 µM |  | 77.2 µM | 74.4 µM | 11.6 µM | 20.1 µM | 85.2 µM | 4.6 µM
COc1cc2c(cc1OC)N(CCCN(C)C)C(=O)c1ccccc1N(C)C2=O | Not Active |  | Not Active |  |  |  |  |  | 
CN(C)CCCN1C(=O)c2ccccc2/C=C\c2ccccc21 |  | 0.43 µM |  | 41.6 µM | 17.1 µM | 9 µM | 23.4 µM | > 100 µM | 36.9 µM
COc1cc2c(cc1OC)N(CCN(C)C)C(=O)c1ccccc1N(C)C2=O |  | > 10 µM |  |  |  |  |  |  | > 100 µM
CN(C)CCCN1C(=O)c2ccccc2C(=O)N(Cc2ccccc2)c2ccccc21 |  |  | Not Active |  |  |  |  |  | > 100 µM
